Measured values from ChEMBL document CHEMBL3045199, “Synthesis of some (E)-6-[2-(furan-2-yl)ethenyl]-1,2,4-triazin-5-ones and their biological evaluation as antitumor agents” (2013).

How the values were obtained:
Format in all cases: functional
[1] = system: RXF 393; experiment: Cytotoxicity against Homo sapiens (human) RXF393 cells assessed as growth inhibition at 10 uM after 24 hr; details: RXF 393, 24 h, read-out: GI
[2] = system: SK-MEL-2; experiment: Cytotoxicity against Homo sapiens (human) SK-MEL-2 cells assessed as growth inhibition at 10 uM after 24 hr; details: SK-MEL-2, 24 h, read-out: GI
[3] = system: MCF7; experiment: Cytotoxicity against Homo sapiens (human) MCF7 cells assessed as growth inhibition at 10 uM after 24 hr; details: MCF7, 24 h, read-out: GI
[4] = system: IGROV-1; experiment: Cytotoxicity against Homo sapiens (human) IGROV1 cells assessed as growth inhibition at 10 uM after 24 hr; details: IGROV-1, 24 h, read-out: GI
[5] = system: UO-31; experiment: Cytotoxicity against Homo sapiens (human) UO31 cells assessed as growth inhibition at 10 uM after 24 hr; details: UO-31, 24 h, read-out: GI
[6] = system: T47D; experiment: Cytotoxicity against Homo sapiens (human) T47D cells assessed as growth inhibition at 10 uM after 24 hr; details: read-out: GI
[7] = system: MDA-MB-468; experiment: Cytotoxicity against Homo sapiens (human) MDA-MB-468 cells assessed as growth inhibition at 10 uM after 24 hr; details: MDA-MB-468, 24 h, read-out: GI
[8] = system: HL-60(TB); experiment: Cytotoxicity against Homo sapiens (human) HL-60(TB) cells assessed as growth inhibition at 10 uM after 24 hr; details: HL-60, 24 h, read-out: GI
[9] = system: OVCAR-8; experiment: Cytotoxicity against Homo sapiens (human) OVCAR8 cells assessed as growth inhibition at 10 uM after 24 hr; details: OVCAR-8, 24 h, read-out: GI

SMILES | inhibition of growth at 10 µM [1] [%] | inhibition of growth at 10 µM [2] [%] | inhibition of growth at 10 µM [3] [%] | inhibition of growth at 10 µM [4] [%] | inhibition of growth at 10 µM [5] [%] | inhibition of growth at 10 µM [6] [%] | inhibition of growth at 10 µM [7] [%] | inhibition of growth at 10 µM [8] [%] | inhibition of growth at 10 µM [9] [%]
O=C(CSc1nc(=O)c(/C=C/c2ccco2)n[nH]1)c1ccc(Cl)cc1 | 62.5 | 42.3 | 80.8 | 80.4 | 33.3 | 38.3 | 57.3 |  | 
O=C1CC(=O)N(c2nc(=O)c(/C=C/c3ccco3)n[nH]2)N1 |  |  |  |  |  |  |  | 54.3 | 
Nn1c(=S)[nH]nc(/C=C/c2ccco2)c1=O |  | 70.7 | 72.7 | 77 |  |  |  |  | 59.1
O=c1c(/C=C/c2ccco2)n[nH]c(=S)n1/N=C/c1ccc([N+](=O)[O-])cc1 |  | 70.3 | 73.1 | 75.6 |  |  |  |  | 47.8
